Laboratory results: patent publication US20040018193A1 (priority 2002, published 2004)

Assays:
[1] = system: murine macrophages (RAW 264.7); type: cell-based
[2] = system: vaccinia virus; type: cell-based
[3] = system: Bacillus anthracis Sterne strain; set-up: species or system DBA/2 mice; settings: mouse, in vivo
[4] = system: primary murine splenocytes; set-up: species or system Balb/c mice; settings: mouse, in vivo
[5] = system: human neutrophils; type: cell-based; settings: cytokine-treated neutrophils; donor-dependent; FIGS. 10 and 11
[6] = system: human neutrophils; type: cell-based; settings: for IL-8 production by neutrophils: cytokine-stimulated, FIG. 12
[7] = system: B. anthracis (Sterne); set-up: species or system A/J mice; settings: mouse, in vivo; for mice still alive: ip
[8] = system: Vaccinia virus (strain WR); set-up: species or system Balb/C mice; settings: mouse, in vivo
[9] = system: Colon-26 cells; set-up: species or system Balb/c mice; settings: mouse, in vivo
[10] = system: VEE virus; set-up: species or system mice; settings: mouse, in vivo
[11] = system: VEE virus; set-up: species or system mice; settings: mouse, in vivo; remark: listed apart in the source
[12] = system: murine peritoneal exudate cells; set-up: species or system Balb/c mice; settings: mouse, in vivo
[13] = system: vaccinia virus; type: in vivo
[14] = system: murine PECs; type: cell-based, BALB/c mice

`CC(=O)O.CNC(=N)NCCC[C@H](N)C(=O)O` [L-NMA, N^G-monomethyl-L-arginine acetate, reference compound] was tested, and the NO production [1] was “inhibit NO production” and the VV replication [2] was “restored VV replication”.

Work on `O=C(O)c1cn(C2CC2)c2cc(N3CCNCC3)c(F)cc2c1=O` [ciprofloxacin] yielded a survival [3] of 40%.

For GM-CSF, the CD25 marker expression [4] was “significant activation”, the superoxide anion levels [5] was “increased superoxide anion levels” and the “IL-8 production by neutrophils” value [6] was “significantly increased”. For the same molecule, the survival [7] was “increased survival” and the mice still alive [7] was 25%.

IFN-α gave a mice remained alive [8] of 95% and a mice still alive [8] of 95%.

For IL-8: cytokine, the superoxide anion levels [5] was “increased superoxide anion levels”.

With IL-12: cytokine the “cytolysis by NK/NKT cells” value [9] was “significant increases”, the “survival of lethally VEE-infected mice” value [10] was “increased survival, but not significantly” and the “reduction of VEE titers in the lungs compared to control animals” value [11] was ~1.5 log10. For the same molecule, the superoxide anion levels [5] was “increased superoxide anion levels” and the survival [7] was “increased survival”.

platelet activating factor [PAF] was tested, and the “GM-CSF-induced IL-8 production” value ([6]; PAF added to GM-CSF, FIG. 13) was “enhances” and the “IL-8 production by neutrophils” value [6] was “increased IL-8 production moderately”.

B1: IFN-γ: cytokine interferon-gamma (protein, UniProt P01579 24-161, looked up)
Interferon gamma: QDPYVKEAENLKKYFNAGHSDVADNGTLFLGILKNWKEESDRKIMQSQIVSFYFKLFKNFKDDQSIQKSVETIKEDMNVKFFNSNKKKRDDFEKLTNYSVTDLNVQRKAIHELIQVMAELSPAAKTGKRKRSQMLFRG
B1 was tested, and the nitric oxide production [1] was “increased nitric oxide production dramatically”, the “effect of cytokine on cell wall-enhanced vaccinia virus clearance” value [2] was “possible weak synergetic effect” and the “plaque forming units relative to cell wall treatment” value [2] was “reduced the number of plaque forming units even further”. For the same molecule, the “reduction in VV titer” value [2] was 95%, the “cytolysis by NK/NKT cells” value [9] was “moderate increases” and the “nitric oxide production by PECs” value [12] was “significant increases”. For the same molecule, the “vaccinia virus-induced cytopathic effect” value [13] was “appeared to be reduced”, the “survival of lethally VEE-infected mice” value [10] was “increased survival” and the “reduction of VEE titers in the lungs compared to control animals” value [11] was ~0.5 log10. For the same molecule, the superoxide anion levels [5] was “increased superoxide anion levels”, the survival [7] was “increased survival” and the mice still alive [7] was 10%. The mice remained alive [8] was 100%, the mice still alive [8] was 100% and the “protection against lethal VV (strain WR) challenge” value [8] was “complete protection”. The “increase of cell wall-induced nitric oxide production” value [14] was 10 to 20 µM.
